The test system of data set [1] is HT-29 cells. Put plainly: Anti-proliferation study (SRB assay) in HT-29 cells. The following applies: for effect on anti-tumor potency of gemcitabine in HT-29: buflomedil 6 μM, FIG. 13; for effect on anti-tumor potency of 5-FU in HT-29: buflomedil 6 uM, dolutegravir 3, 6 and 9 μM, FIG. 12. (In general: In SRB staining, fixed cells bind dye roughly in proportion to their protein.)
Protocol: The potency was determined by the sulforhodamine B (SRB) assay in 96-well plates. […] Seeding density was 3000 cells/well for both cell lines.

Data set [2] deals with MDCK cells expressing OCT2, MATE1 and MATE2K. Put plainly: LDH cytotoxicity of oxaliplatin in MDCK-II triple-transporter model. The conditions noted are these: for effect on oxaliplatin induced cytotoxicity in OCT2 expressing cells: buflomedil 3 and 6 μM, dolutegravir 10 μM, erlotinib 6 μM, cimetidine 6 μM, FIG. 6.
Protocol: A triple-transporter model for OCT2(SLC22A2), MATE1(SLC47A1), and MATE2-K(SLC47A2) was created by transfecting fully confluent MDCK-II cell monolayers with DNA mixture containing the plasmids encoding OCT2, MATE1, and MATE-2K at concentrations of 40, 15, and 5 ng/μl, respectively. The OCT2 was expressed on the basolateral cell membrane, and MATE1 and MATE2-K were expressed on the apical side of the cells. […] The apical medium was adjusted to pH 6.7 with 25 mM of 2-(N-morpholino) ethanesulfonic acid (MES).
After removal of the media, a drug-free medium was added in both sides. After incubation 24 hours, the medium was collected, and the lactate dehydrogenase (LDH) activity in the medium was measured using an LDH cytotoxicity assay kit (G-Biosciences. St. Louis, Mo.; or Biochain, Newark, Calif.), according to the manufacturers' instructions. Cytotoxicity was evaluated by measuring the LDH activity in the medium.
Cytotoxicity was tested using the same procedure described above.
Data set [3] has as its target T1, OCT2 over OCT1, OCT3 and MATE1 (Homo sapiens, UniProt O15244).
T1 sequence (O15244 1-555): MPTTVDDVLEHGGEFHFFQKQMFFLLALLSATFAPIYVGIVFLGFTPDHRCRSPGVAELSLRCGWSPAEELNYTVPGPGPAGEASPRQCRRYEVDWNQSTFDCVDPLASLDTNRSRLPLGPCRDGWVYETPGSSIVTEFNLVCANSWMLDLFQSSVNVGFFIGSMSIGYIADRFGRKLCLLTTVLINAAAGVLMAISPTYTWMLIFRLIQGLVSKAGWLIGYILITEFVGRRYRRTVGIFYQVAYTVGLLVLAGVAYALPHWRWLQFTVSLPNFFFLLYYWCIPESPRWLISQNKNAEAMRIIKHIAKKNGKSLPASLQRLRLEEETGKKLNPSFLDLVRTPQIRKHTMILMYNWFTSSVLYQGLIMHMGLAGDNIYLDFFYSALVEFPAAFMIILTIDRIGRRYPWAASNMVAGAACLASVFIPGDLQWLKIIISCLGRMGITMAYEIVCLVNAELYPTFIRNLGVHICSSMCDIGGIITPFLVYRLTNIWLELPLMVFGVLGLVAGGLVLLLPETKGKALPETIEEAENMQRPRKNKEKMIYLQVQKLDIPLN
The data set is described as follows: Inhibition of OCT2-mediated oxaliplatin transport in 100% human serum or HBSS containing 4% BSA (IC50,app). The conditions noted are these: human, MDCK-II cells transfected with human transporters, fold higher potency (selectivity) for OCT2 over OCT1, OCT3 and MATE1 in transporting oxaliplatin, from IC50,app of Table 4.
Description: (§1) Fully confluent MDCK cell monolayers were transfected with either cDNA plasmids encoding the human transporter to be tested or a GFP control. […] The cells were then washed with ice-cold PBS and lysed with 50:50 acetonitrile:H2O. Intracellular content of the substrate was quantified by LC/MS/MS or a MicroBeta radiometric plate reader.

Data set [4] in a line: Published clinical pharmacokinetic data. The conditions noted are these: from published Cmax and protein binding.
Data set [5] deals with Balb/c mice exposed to acute treatment with Oxaliplatin. Put plainly: Cold plate test after a single oxaliplatin administration. It is filed as in vivo, mouse. The following applies: 48 hours after single OXA 3.5 mg/kg iv, DTG 4 mg/kg ip 1 hour before. The method, then:
OXA vehicle, OXA, CPC, DTG, DTG+OXA and CPC+OXA were administered once time. In the group co-administered with OXA and DTG. DTG was injected intraperitoneally 1 hour before the administration of OXA. In the group co-administered with OXA and CPC, CPC was co-administered with OXA intravenously. Mechanical allodynia and cold sensory threshold (dynamic test and cold plate test) were performed 24 and 48 hours after the treatment, respectively, using the methods described in EXAMPLE 15 Plasma Sample Collection

The target of data set [6] is T2, OCT2 (Homo sapiens, UniProt O15244).
T2 sequence (O15244 1-555): T1 sequence (O15244 1-555)
The conditions noted are these: OCT2-mediated uptake; ASP+ 5 μM in HBSS; from Kido Y et al. J Med Chem 2011; cited from earlier work.

Data set [7] addresses MATE2K (Homo sapiens, UniProt Q86VL8). The data set is described as follows: Inhibition of MATE2K-mediated oxaliplatin transport in human serum or 4% BSA HBSS.
Description: as §1
The subject of data set [8] is Balb/c mice exposed to chronic treatment with Oxaliplatin. The data set is described as follows: Sciatic nerve histology, g-ratio, in chronic oxaliplatin neuropathy model. The format is in vivo, mouse. The conditions noted are these: OXA 3.5 mg/kg iv, 8 cycles ± BFMD 30 mg/kg ip + 15 mg/kg iv. As for the experimental part: After completion of behavioral and electrophysiological analysis, animals were killed and sciatic nerves were dissected, fixed, stained for myelin and cut as semithin sections. Light microscopy was performed to capture an image of the entire nerve which was then subjected to semi-automatic software-based nerve morphometry in order to assess axon diameter and myelin thickness 20.
To assess changes in nerve cell myelination, we calculated the g ratio of nerve fibers (g-ratio denominates the numerical ratio between the diameter of the axon and the outer diameter of the myelinated fiber; hypomyelination in sciatic nerves, which is associated with platinum neurotoxicity (Boehmerle, W., et al. Sci. Rep. 4, 6370), would thus cause an increase of the g-ratio).

Data set [9] relates to OCT2 and MATE1. The data set is described as follows: Buflomedil inhibition of OCT2 and MATE1 with metformin as substrate (FIG. 15A). The format is cell-based, human.
Data set [10] addresses T3, MATE1 (Homo sapiens, UniProt Q96FL8).
T3 sequence (Q96FL8 1-570): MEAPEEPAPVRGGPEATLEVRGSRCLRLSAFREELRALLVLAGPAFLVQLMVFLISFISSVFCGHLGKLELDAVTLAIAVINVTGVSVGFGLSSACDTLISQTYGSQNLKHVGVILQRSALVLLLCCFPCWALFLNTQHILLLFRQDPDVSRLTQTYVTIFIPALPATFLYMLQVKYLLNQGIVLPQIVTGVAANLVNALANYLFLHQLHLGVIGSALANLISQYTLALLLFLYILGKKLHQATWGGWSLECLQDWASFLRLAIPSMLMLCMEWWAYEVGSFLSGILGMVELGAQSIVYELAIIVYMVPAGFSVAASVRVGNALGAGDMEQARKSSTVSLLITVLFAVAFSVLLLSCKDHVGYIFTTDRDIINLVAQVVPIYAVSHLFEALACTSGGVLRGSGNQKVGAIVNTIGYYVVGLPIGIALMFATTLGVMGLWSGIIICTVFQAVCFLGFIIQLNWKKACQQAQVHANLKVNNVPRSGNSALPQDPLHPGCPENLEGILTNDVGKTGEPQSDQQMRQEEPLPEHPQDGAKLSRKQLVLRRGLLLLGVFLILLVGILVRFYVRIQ
Put plainly: Inhibition of MATE1-mediated oxaliplatin transport in human serum or 4% BSA HBSS.
Description: as §1

By IC50 is commonly meant the concentration that gives 50% inhibition.

“Also recorded” adds a separate entry of the source.

Chain of MATE2K (Q86VL8 1-566 isoform Q86VL8-3): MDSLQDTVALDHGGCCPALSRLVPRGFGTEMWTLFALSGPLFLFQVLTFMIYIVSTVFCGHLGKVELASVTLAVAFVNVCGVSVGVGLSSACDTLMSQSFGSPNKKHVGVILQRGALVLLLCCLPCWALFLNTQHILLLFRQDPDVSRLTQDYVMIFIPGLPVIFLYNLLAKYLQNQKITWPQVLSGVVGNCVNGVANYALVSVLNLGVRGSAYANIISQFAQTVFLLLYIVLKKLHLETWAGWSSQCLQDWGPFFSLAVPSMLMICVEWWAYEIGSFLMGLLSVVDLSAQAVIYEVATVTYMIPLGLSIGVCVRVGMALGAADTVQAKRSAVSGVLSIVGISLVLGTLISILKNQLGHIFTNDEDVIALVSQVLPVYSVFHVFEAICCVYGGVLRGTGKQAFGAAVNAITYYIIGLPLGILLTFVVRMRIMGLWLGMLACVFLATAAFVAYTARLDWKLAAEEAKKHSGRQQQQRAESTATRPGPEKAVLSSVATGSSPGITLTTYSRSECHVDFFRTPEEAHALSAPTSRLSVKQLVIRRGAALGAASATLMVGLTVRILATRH

With `C[C@@H]1CCO[C@H]2Cn3cc(C(=O)NCc4ccc(F)cc4F)c(=O)c(O)c3C(=O)N12` [Dolutegravir], in [1], the “effect on anti-tumor potency of gemcitabine in HT-29” value was “did not impact the anti-tumor effect of 5-FU and gemcitabine”; the “effect on anti-tumor potency of 5-FU in HT-29” value was “did not impact the anti-tumor effect of 5-FU and gemcitabine; also recorded: did not affect anti-tumor potency of 5-FU”. In data set [2], the “effect on oxaliplatin induced cytotoxicity in OCT2 expressing cells” value is “significantly reduced oxaliplatin (OXA) induced cytotoxicity”. Also, the selectivity ratio in [3] is not below 10. Also, the “Plasma peak unbound concentration Cmax,u” value in [4] was 50 nM. Besides, in [5], the “cold allodynia, cold plate” value is reported as “effective on reducing cold hypersensitivity”. The “cold allodynia, cold plate” value in data set [5] (listed as DTG) is reported as “protects the animal from cold allodynia”.

`COc1cc(OC)c(C(=O)CCCN2CCCC2)c(OC)c1` [Buflomedil, 4-pyrrolidin-1-yl-1-(2,4,6-trimethoxyphenyl)butan-1-one]: the “effect on anti-tumor potency of gemcitabine in HT-29” value in data set [1] was “did not impact the anti-tumor effect of 5-FU and gemcitabine; also recorded: did not affect anti-tumor potency of gemcitabine”. Besides, the “effect on anti-tumor potency of 5-FU in HT-29” value in data set [1] was “did not impact the anti-tumor effect of 5-FU and gemcitabine; also recorded: did not affect anti-tumor potency of 5-FU”. Also, in data set [6], the “Inhibition % @ 20 μM (substrate ASP+)” value is 104%. The IC50 in data set [7] was determined as 84 ± 23.1 µM; in data set [2] (Canis lupus familiaris, MDCK, read-out: IC50 for reduction of oxaliplatin-induced cytotoxicity), 6 µM; in data set [10], 32.7 ± 5.4 µM. In addition, the entries for the “sciatic nerve G-ratio (hypomyelination)” value in [8] (listed as BFMD) and in data set [8] (listed as buflomedil) were “reduction in G-ratio of the OXA+BFMD group vs OXA group” and “effective on reducing sciatic nerve damage”, respectively. Further, the “reduction of cytotoxicity of 100 μM oxaliplatin” value in data set [2] (buflomedil 3-1000 μM, LDH release, FIG. 5) is recorded as “reduced cytotoxicity of 100 μM Oxaliplatin in OCT2-expressing cells in a dose-dependent fashion”. Moreover, the “effect on oxaliplatin induced cytotoxicity in OCT2 expressing cells” value in data set [2] was “significantly reduced oxaliplatin (OXA) induced cytotoxicity”. In data set [9], the “inhibition selectivity between OCT2 and MATE1, metformin as substrate” value is “no inhibition selectivity between OCT2 and MATE1”. Also, the selectivity ratio in [3] was more than 10. Moreover, in [4], the “Plasma peak unbound concentration Cmax,u” value is 2040 nM.

Take `Clc1ccc(COC(Cn2ccnc2)c2ccc(Cl)cc2Cl)c(Cl)c1` (centres unmarked) [Miconazole]: in [6], the “Inhibition % @ 20 μM (substrate ASP+)” value is 91%. Moreover, the IC50 in data set [7] and in data set [10] was more than 100 µM each time.
